Source: the SangsterLogP compilation
One block for each compound: values may come before it.

Assays:
[1] = not given; remark: listed apart in the source
[2] = method code SF-AS, from DOI: 10.1081/jlc-120022394
[3] = not given; remark: listed apart in the source
[4] = not given; remark: listed apart in the source
[5] = method code SF-HPLC, from DOI: 10.1016/0731-7085(91)80215-u, PMID: 1821151; conditions: pH 7.4
[6] = method code SF-HPLC, from DOI: 10.1002/jps.10112, PMID: 12115830; conditions: pH 7.4
[7] = not given; remark: listed apart in the source
[8] = method code SF-AS, from DOI: 10.1248/bpb1978.7.120, PMID: 6427444
[9] = method code SF-AS, from DOI: 10.1016/s0020-1693(00)85781-3
[10] = method code SF, from DOI: 10.1021/jm00294a005, PMID: 5000561
[11] = method code SF-HPLC, from DOI: 10.1016/s0006-2952(00)00420-2, PMID: 10974206
[12] = method code SF, from DOI: 10.1016/0165-1218(78)90089-7, PMID: 362190
[13] = method code SF-AS, from DOI: 10.1248/cpb.17.2558
[14] = method code SF, from Huang, Q.; Wang, L.; Han, S.; Wang, G.; Gao, H. (1993). Quantitative relation between molecular structures and the hydrophobic parameters of halogenated arenes. Chemical Journal of Chinese …

Structure (SMILES): ClC(Cl)=C(c1ccc(Cl)cc1)c1ccc(Cl)cc1
logP [1]: 5.89

Structure (SMILES): CCOC(=O)C(=CC=Cc1ccccc1)NC=O
logP [2]: 2.91

Structure (SMILES): CN(C)c1cccc([N+](=O)[O-])c1
logP [3]: 2.16

Structure (SMILES): CCC1OC(=O)CC(O)C(C)C(OC2OC(C)C(OC3C[C@@](C)(O)C(O)C(C)O3)C(N(C)C)C2O)C(CC=O)CC(C)C(=O)C=CC(C)=CC1COC1OC(C)C(O)C(OC)C1OC (some centres not stated)
logP [4]: 1.63

Structure (SMILES): CCC1OC(=O)CC(O)C(C)C(O[C@H]2OC(C)C(O)C(N(C)C)C2O)C(CCN2CC(C)CC(C)C2)CC(C)C(=O)C=CC(C)=CC1COC1OC(C)C(O)C(OC)C1OC (some centres not stated)
logP [4]: 3.8

Structure (SMILES): CCCCC(=O)OCC(c1cncn1C)C(CC)C(=O)OCc1ccccc1 (configuration not stated)
logD [5]: 4.43

Structure (SMILES): CCSSc1ncc[nH]1
logD [6]: 2.13

Structure (SMILES): CC(C)(C)c1ccncc1
logP [7]: 2.42

Structure (SMILES): O=C(O)c1ccc2c(c1)COCCOCCOCCOCCOCCOC2
logP [9]: -0.28

Structure (SMILES): CO[C@@H]1[C@@H](O[C@@H]2O[C@H](C)[C@@H](O[C@H]3C[C@@](C)(O)[C@@H](OC(C)=O)[C@H](C)O3)[C@H](N(C)C)[C@H]2O)[C@@H](CC=O)C[C@@H](C)[C@@H](O)/C=C\C=C/C[C@@H](C)OC(=O)C[C@H]1O
logP [10]: 0.88

Structure (SMILES): CO[C@H]1C[C@H](O[C@H]2[C@H](C)[C@@H](O[C@@H]3O[C@H](C)C[C@H](N(C)C)[C@H]3O)[C@@H](C)C[C@@]3(CO3)C(=O)[C@H](C)[C@@H](O)[C@@H](C)[C@@H](C)OC(=O)[C@@H]2C)O[C@@H](C)[C@@H]1O
logP [4]: 1.69

Structure (SMILES): CCCCCOC(=O)N1C2CN3C4=C(C(=O)C(N)=C(C)C4=O)C(COC(N)=O)C3(OC)C21 (configuration not stated)
logP [8]: 2.45

Structure (SMILES): CC[C@H]1OC(=O)C[C@@H](O)[C@H](C)[C@@H](O[C@@H]2O[C@H](C)[C@@H](O)[C@H](N(C)C)[C@H]2O)[C@@H](CC=O)C[C@@H](C)C(=O)/C=C/C(C)=C/[C@@H]1CO
logP [4]: 0.99

Structure (SMILES): CCCC(=O)OC1C(C)OC(OC2C(C)OC(OC3C(CC=O)CC(C)C(O)/C=C\C=C\CC(C)OC(=O)CC(OC(C)=O)C3OC)C(O)C2N(C)C)CC1(C)O (configuration not stated)
logP [10]: 1.88

Structure (SMILES): C1CCCCCC2OC2CCCC1 (configuration not stated)
logP [1]: 4.7

Structure (SMILES): Brc1cccnc1
logP [7]: 1.5

Structure (SMILES): Cc1nc([N+](=O)[O-])cn1CCO
logP [12]: -0.59

Structure (SMILES): CO[C@@H]1[C@@H](O[C@@H]2O[C@H](C)[C@@H](O[C@H]3C[C@@](C)(O)[C@@H](OC(=O)CC(C)C)[C@H](C)O3)[C@H](N(C)C)[C@H]2O)[C@@H](CC=O)C[C@@H](C)C(=O)/C=C/C2OC2C[C@@H](C)OC(=O)C[C@H]1OC(C)=O (some centres not stated)
logP [4]: 3.04

Structure (SMILES): CCCC(=O)O[C@H]1[C@H](C)O[C@@H](O[C@H]2[C@H](N(C)C)[C@@H](O)[C@H](O[C@H]3[C@@H](CC=O)C[C@@H](C)[C@@H](O)/C=C/C=C/C[C@@H](C)OC(=O)C[C@@H](O)[C@@H]3OC)O[C@@H]2C)C[C@@]1(C)O
logP [10]: 1.88

Structure (SMILES): FC(F)(Cl)C(F)(Cl)Cl
logP [1]: 3.16

Structure (SMILES): O=[N+]([O-])c1ccc(Cl)cc1
logP [3]: 2.45

Structure (SMILES): NS(=O)(=O)c1ccc(Cl)c([N+](=O)[O-])c1
logD ([13]; pH 2.0): 1.91

Structure (SMILES): O=[N+]([O-])c1ccccc1Br
logP [3]: 2.5

Structure (SMILES): Nc1cccnc1
logP [7]: 0.05

Structure (SMILES): CC(=O)c1ccc2c(c1)COCCOCCOCCOCCOCCOC2
logP [9]: -0.05

Structure (SMILES): CC[C@H]1OC(=O)[C@H](C)[C@@H](O[C@H]2C[C@@](C)(OC)[C@@H](O)[C@H](C)O2)[C@H](C)[C@@H](O[C@@H]2O[C@H](C)C[C@H](N(C)C)[C@H]2O)[C@](C)(O)C[C@@H](C)C(N)[C@H](C)[C@H]2OC(=O)O[C@@]21C (some centres not stated)
logP [4]: 2.92

Structure (SMILES): Brc1cc(Br)cc(Br)c1
logP [14]: 4.98

Structure (SMILES): c1ccc2c(c1)COCCOCCOCCOCCOCCOC2
logP [9]: 0.15

Structure (SMILES): CC(C)(C)SSc1ncc[nH]1
logD [6]: 2.56

Structure (SMILES): CCOC(=O)C(=Cc1ccc2c(c1)OCO2)NC=O
logP [2]: 1.66

Structure (SMILES): c1ccc2c(c1)COCCOCCOCCOCCOC2
logP [9]: 0.7

Structure (SMILES): Brc1ccncc1
logP [7]: 1.49

Structure (SMILES): CCCCCCCCCOC(=O)N1[C@H]2[C@@H]1CN1C3=C(C(=O)C(N)=C(C)C3=O)[C@@H](COC(N)=O)[C@@]21OC
logP [8]: 3.56

Structure (SMILES): ClC1=C(Cl)C(Cl)(Cl)C(Cl)=C1Cl
logP [1]: 5.04

Structure (SMILES): CCOC(=O)C(=Cc1ccoc1)NC=O
logP [2]: 2.08

Structure (SMILES): Clc1ccccc1Br
logP [14]: 3.83

Structure (SMILES): CC(O)C(C)SSc1ncc[nH]1 (configuration not stated)
logD [6]: 1.39

Structure (SMILES): Brc1ccc(Br)c(Br)c1
logP [14]: 4.98

Structure (SMILES): CCCCCCCCOC(=O)COc1ccc(Cl)cc1Cl
logP [1]: 5.86

Structure (SMILES): C=CCOCC(O)Cn1ccnc1[N+](=O)[O-] (configuration not stated)
logP [12]: 0.3

Structure (SMILES): CCCOC(=O)N1C2CN3C4=C(C(=O)C(N)=C(C)C4=O)C(COC(N)=O)C3(OC)C21 (configuration not stated)
logP [8]: 1.51

Structure (SMILES): CCN(CC)CCCNC(=O)C(=O)NN=Cc1ccc([N+](=O)[O-])o1
logP [12]: -1.12

Structure (SMILES): Brc1cccc(Br)c1Br
logP [14]: 4.98

Structure (SMILES): COC12C(COC(N)=O)C3=C(C(=O)C(C)=C(N)C3=O)N1CC1C2N1C(=O)OC1CCC2=CCC3C(CCC4(C)C(C(C)CCCC(C)C)CCC34)C2(C)CC1 (configuration not stated)
logP [8]: 3.88

Structure (SMILES): CCCCC1CC(C(=O)NC(CC(C)O)C2OC(SC)C(O)C(O)C2O)N(C)C1 (configuration not stated)
logP [10]: 0.56

Structure (SMILES): Nc1nnc(S(N)(=O)=O)s1
logD ([13]; pH 5.5): -0.9

Structure (SMILES): CO[C@@H]1[C@@H](O[C@@H]2O[C@H](C)[C@@H](O[C@H]3C[C@@](C)(O)[C@@H](OC(C)=O)[C@H](C)O3)[C@H](N(C)C)[C@H]2O)[C@@H](CC=O)C[C@@H](C)[C@@H](O)/C=C/C=C/C[C@@H](C)OC(=O)C[C@H]1OC(C)=O
logP [10]: 0.88

Structure (SMILES): CCC(C)SSc1ncc[nH]1 (configuration not stated)
logD [6]: 2.76

Structure (SMILES): NS(=O)(=O)c1ccc([N+](=O)[O-])c(C(F)(F)F)c1
logD ([13]; pH 2.0): 1.73

Structure (SMILES): Cn1cnc([N+](=O)[O-])c1Cl
logP [12]: 0.3

Structure (SMILES): CCCCC(=O)OCC(c1cncn1C)C(CC)C(=O)OCC1CCCCC1 (configuration not stated)
logD [5]: 5.56

Structure (SMILES): CCC(=O)O[C@H]1[C@H](C)O[C@@H](O[C@H]2[C@H](N(C)C)[C@@H](O)[C@H](O[C@H]3[C@@H](CC=O)C[C@@H](C)[C@@H](O)/C=C/C=C/C[C@@H](C)OC(=O)C[C@@H](O)[C@@H]3OC)O[C@@H]2C)C[C@@]1(C)O
logP [10]: 1.38

Structure (SMILES): COc1cccc([N+](=O)[O-])c1
logP [3]: 2.09

Structure (SMILES): O=Cc1cccnc1
logP [7]: 0.29

Structure (SMILES): c1ccc2c(c1)COCCOCCOCCOCCOCc1ccccc1COCCOCCOCCOCCOC2
logP [9]: 1.84

Structure (SMILES): Clc1cccc(Br)c1
logP [14]: 3.83

Second part, the compound after the results:

logP: 3.11
Structure (SMILES): O=C1c2c(O)cccc2C(C(=O)c2ccc(O)cc2)c2cccc(O)c21

logP [8]: 2.05
Structure (SMILES): COC12C(COC(N)=O)C3=C(C(=O)C(C)=C(N)C3=O)N1CC1C2N1C(=O)OCc1ccccc1 (configuration not stated)

logD [5]: 4.57
Structure (SMILES): CCC(C(=O)OCc1ccccc1)C(COC(=O)c1ccccc1)c1cncn1C (configuration not stated)

logP [11]: 2.5
Structure (SMILES): CN(C)CCCNc1c2ccccc2[n+]([O-])c2ccccc12

logP: 3.68
Structure (SMILES): O=C1c2c(O)cccc2C(C(=O)c2ccc3c(c2)OCO3)c2cccc(O)c21

logP: 2.44
Structure (SMILES): O=C1c2c(O)cccc2C(C(=O)c2cc(O)c(O)c(O)c2)c2cccc(O)c21

logD ([13]; pH 2.0): 0.85
Structure (SMILES): Cc1cccc(S(N)(=O)=O)c1

logP: 2.79
Structure (SMILES): O=C1c2c(O)cccc2C(C(=O)c2ccc(O)c(O)c2)c2cccc(O)c21

logP [11]: 3.6
Structure (SMILES): CN(C)CCCNc1c2ccccc2nc2ccccc12

logP: 4.22
Structure (SMILES): O=C1c2c(O)cccc2C(C(=O)c2ccc(OCc3ccccc3)cc2)c2cccc(O)c21

logP [11]: 3.1
Structure (SMILES): CN(C)CCCNc1c2ccccc2[n+]([O-])c2cccc([N+](=O)[O-])c12

logD [5]: 5.64
Structure (SMILES): CCC(C(=O)OCc1ccccc1)C(COC(=O)c1cccc(Cl)c1)c1cncn1C (configuration not stated)

logP [2]: 2.51
Structure (SMILES): CCOC(=O)C(=Cc1cccc(Cl)c1)NC=O

logP [3]: 2.59
Structure (SMILES): O=[N+]([O-])c1cccc(Cl)c1

logP [11]: 0.4
Structure (SMILES): C[N+](C)([O-])CCCNc1c2ccccc2nc2ccccc12

logP [11]: 1.4
Structure (SMILES): C[N+](C)([O-])CCCNc1c2ccccc2nc2cccc([N+](=O)[O-])c12

logP [11]: 3.8
Structure (SMILES): CN(C)CCCNc1c2ccccc2nc2cccc([N+](=O)[O-])c12

logD ([13]; pH 2.0): 0.84
Structure (SMILES): Cc1ccccc1S(N)(=O)=O

logD [6]: 3.05
Structure (SMILES): c1ccc(CSSc2ncc[nH]2)cc1

logD [5]: 2.87
Structure (SMILES): CCC(C(=O)OCc1ccccc1)C(COC(C)=O)c1cncn1C (configuration not stated)

logP: 3.81
Structure (SMILES): O=C1c2c(O)cccc2C(C(=O)c2ccccc2)c2cccc(O)c21

logD [5]: 3.3
Structure (SMILES): CCC(=O)OCC(c1cncn1C)C(CC)C(=O)OCc1ccccc1 (configuration not stated)

logP [12]: 0.15
Structure (SMILES): NC(=O)/C(=C\c1ccc([N+](=O)[O-])o1)c1ccco1

logP [2]: 2.48
Structure (SMILES): CCOC(=O)C(=Cc1ccccc1)NC=O

logP [2]: 2.41
Structure (SMILES): CCOC(=O)C(=Cc1ccccc1Cl)NC=O

logP [8]: 1.54
Structure (SMILES): COC12C(COC(N)=O)C3=C(C(=O)C(C)=C(N)C3=O)N1CC1C2N1C(=O)Cc1ccccc1 (configuration not stated)
